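The compound was tested at five concentrations on cells cultured in 96-well plates, with a 48-hour exposure period. GI50 = concentration required for 50% inhibition of growth. TGI: concentration producing complete growth inhibition.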 Where only a bound is given, the exact number is not on record here.

The test system of this experiment is MDA-MB-468 breast. Description: DTP human tumour cell line panel, 48 h.
As to `CCOC(=O)NC1C2CC(=O)OC(O2)C1OC(C)=O` (configuration not stated), the GI50 is above 100000 nM and the TGI was above 100000 nM. For `COc1cccc(/C=C/[N+](=O)[O-])c1`, the GI50 is 2300 nM and the TGI was determined as 5210 nM.

`O=S(=O)(NCCCNc1nccc(-c2c(-c3ccc(F)c(O)c3)nc3sccn23)n1)c1ccc(F)cc1`: the GI50 was 2620 nM and the TGI stood at 7350 nM.

With `C=C(CN1CCN(c2cccc(C(F)(F)F)n2)CC1)c1ccc(C(=O)Nc2ccccc2N)cc1`, the GI50 was 1190 nM and the TGI amounted to 7280 nM. Taken in the same sequence, the figures for `CCC(=O)Nc1ccccc1C#C/C=C\C#Cc1ccccc1SC` were 3120 nM and above 100000 nM. Taken in the same sequence, the figures for `C/C(=N\Nc1cc(C)c2ccccc2n1)c1ccccn1` were 66.2 nM and 749 nM. Taken in the same sequence, the figures for `C=C1C(=O)O[C@H]2[C@H]1CC/C(COC(=O)C(=O)c1cn(C)c3ccc(Cl)cc13)=C\CC[C@@]1(C)O[C@@H]21` were 248 nM and 637 nM.

Consider `C[C@@H](O)[C@H](NC(=O)N[C@@H](CC(N)=O)c1nc([C@@H](N)CO)no1)C(=O)O`, for which the GI50 was above 100000 nM and the concentration for total growth inhibition (TGI) is above 100000 nM.

For the molecule `NC1CCC(Nc2nc(NCc3ccc(-c4ccccc4O)nc3)c3ncn(C4CCCC4)c3n2)CC1` (configuration not stated), the GI50 is below 10 nM and the total growth inhibition concentration (TGI) was determined as 12.9 nM. Turning to `CC(=Nc1ccccc1)C1=C(O)C(Cc2ccc(O)cc2)NC1=O` (configuration not stated), the GI50 was 24.4 nM and the concentration for total growth inhibition (TGI) was determined as 87.4 nM. As to `Cc1ccc2c(-c3ccnc(Nc4ccccc4)n3)c(-c3ccc(F)cc3)nn2n1`, the GI50 was 961 nM and the concentration for total growth inhibition (TGI) was 6350 nM. On the same counts, the results for `CCN(Cc1ccccc1)c1ccc(CO)c(Cl)c1` are 20.2 nM and 55.9 nM. Taken in the same sequence, the figures for `C=C(C)[C@@H]1CC[C@]2(C(=O)O)CC[C@]3(C)[C@H](CC[C@@H]4[C@@]5(C)CCC(NC(=O)c6cccc(OC(C)=O)c6OC(C)=O)C(C)(C)[C@@H]5CC[C@]43C)[C@@H]12` (some centres not stated) were 424 nM and 2890 nM. Regarding `COc1ccc(NC([Se])=NC23CC4CC(CC(C4)C2)C3)cc1`, the GI50 was 1350 nM and the total growth inhibition concentration (TGI) was determined as 3420 nM.

In the case of `O=C(O)c1ccc(Oc2nccc(-c3c(-c4ccc(F)cc4)ncn3C3CCNCC3)n2)cc1`, the GI50 is above 25000 nM and the concentration for total growth inhibition (TGI) is above 25000 nM. `CNC(=O)c1ccc(N2C(=S)N(c3ccc(C#N)c(C(F)(F)F)c3)C(=O)C2(C)C)cc1F`: the GI50 was 17100 nM and the concentration for total growth inhibition (TGI) is above 75700 nM. On the same counts, the results for `N#CC1=C(N)Oc2c(ccc3ccccc23)C1c1ccccc1` (configuration not stated) are 75.1 nM and 1790 nM. On the same counts, the results for `O=C1NC(=O)C(c2ccccc2Cl)=C1Nc1cc(Cl)c(O)c(Cl)c1` are 6290 nM and above 21400 nM. On the same counts, the results for `C=C(NC(=O)C(=C)NC(=O)c1csc(C2=NC3c4csc(n4)C4NC(=O)c5csc(n5)C(C(C)(O)C(C)O)NC(=O)C5CSC(=N5)C(=CC)NC(=O)C(C(C)O)NC(=O)c5csc(n5)C3(CC2)NC(=O)C(C)NC(=O)C(=C)NC(=O)C(C)NC(=O)C(C(C)CC)NC2C=Cc3c(C(C)O)cc(nc3C2O)C(=O)OC4C)n1)C(N)=O` (configuration not stated) are 1580 nM and 3630 nM. Consider `Cc1nc2sc(C(=O)Nc3cccc4ccccc34)c(N)c2cc1C(O)c1ccccc1` (configuration not stated), for which the concentration for 50% growth inhibition (GI50) is 35.1 nM and the concentration for total growth inhibition (TGI) turned out to be 15200 nM. On the same counts, the results for `C=CCn1c(SCC(=O)Nc2ccc(C(=O)/C=C/c3cc(OC)c(OC)c(OC)c3)cc2)nnc1-c1c[nH]c2ccccc12` are 1770 nM and 4210 nM. Consider `COc1cc(N2CCC(N3CCN(C)CC3)CC2)ccc1Nc1ncnc(Nc2ccccc2S(=O)(=O)C(C)C)n1`, for which the GI50 was 4780 nM and the TGI turned out to be 20300 nM. On the same counts, the results for `O=C1CC(=O)N(C(=O)c2nn(-c3ccc(Cl)cc3)cc2O)N1` are 716 nM and above 66500 nM. Taken in the same sequence, the figures for `C=C1C(=O)O[C@H]2[C@H]1CC/C(COC(=O)c1cc3ccccc3o1)=C\CC[C@@]1(C)O[C@@H]21` were 1500 nM and 3720 nM. Taken in the same sequence, the figures for `CC(C)C[C@H](NC(=O)Cn1ccc(NCc2ccccc2)cc1=O)B(O)O` were 370 nM and 1780 nM. Regarding `Cc1c2c(cc[n+]1Cc1ccccc1)c1ccc(OCc3ccccc3)cc1n2Cc1ccccc1`, the GI50 is 191 nM and the concentration for total growth inhibition (TGI) stood at 915 nM.

For `COc1ccc(-c2cc(-c3ccc(Cl)cc3)nc(SCCCC(=O)NO)n2)cc1`, the GI50 was 1490 nM and the TGI was determined as 4340 nM.

Turning to `COc1cc2ncn(-c3cc(O[C@@H](C)c4ccccc4Cl)c(C(N)=O)s3)c2cc1OC`, the GI50 was 120 nM and the total growth inhibition concentration (TGI) worked out at 1610 nM. For the molecule `Cc1ccc(Cc2cnc(NC(=O)/C=C/c3cccc(C)c3)s2)cc1`, the GI50 is 309 nM. In the case of `CC(=O)N1C/C(=C/c2ccc(Cl)cc2)C(=O)/C(=C/c2ccc(Cl)cc2)C1`, the GI50 was 469 nM and the total growth inhibition concentration (TGI) was found to be 1760 nM. Taken in the same sequence, the figures for `COc1cc(-c2ccc(-c3ccc(C(=N)N)nc3)s2)cc(OC)c1OC` were 1740 nM and 4410 nM.

Turning to `CS(=O)(=O)CCNCc1ccc(-c2ccc3ncnc(Nc4ccc(OCc5ccccc5)c(Br)c4)c3c2)o1`, the 50% growth inhibitory concentration (GI50) was 82 nM and the total growth inhibition concentration (TGI) was found to be 1000 nM.

Consider `COc1cc2c(cc1OC)-c1ccc3cc4c(cc3c1N(CCCn1ccnc1)C2)OCO4`, for which the concentration for 50% growth inhibition (GI50) was 397 nM and the TGI was determined as 2730 nM. On the same counts, the results for `CCCN(CCC)c1ccc(/C=C/c2ccc3cc(OCC)ccc3n2)cc1` are 80100 nM and above 100000 nM.

(Values after PubChem BioAssay (NCI).)
